Results from patent US9527807B2, “Sulfonamide derivative and use thereof” (Takeda Pharmaceutical Company Limited, priority 2011, dated 2016).

These compounds were tested against T1, AMPA receptor (human GluR1 flip/stargazin expressed in CHO-K1 cells) (Homo sapiens, UniProt P42261) (assay: AMPA receptor function enhancing activity using calcium influx as index). Settings: change in fluorescence level in 3 min, 100% = 3 mM glutamic acid + 300 μM cyclothiazide, 0% = 3 mM glutamic acid only.
T1 construct: expressed in transfected cells; host or cells: CHO-K1
T1 sequence (P42261 19-906 isoform P42261-2 limits assumed): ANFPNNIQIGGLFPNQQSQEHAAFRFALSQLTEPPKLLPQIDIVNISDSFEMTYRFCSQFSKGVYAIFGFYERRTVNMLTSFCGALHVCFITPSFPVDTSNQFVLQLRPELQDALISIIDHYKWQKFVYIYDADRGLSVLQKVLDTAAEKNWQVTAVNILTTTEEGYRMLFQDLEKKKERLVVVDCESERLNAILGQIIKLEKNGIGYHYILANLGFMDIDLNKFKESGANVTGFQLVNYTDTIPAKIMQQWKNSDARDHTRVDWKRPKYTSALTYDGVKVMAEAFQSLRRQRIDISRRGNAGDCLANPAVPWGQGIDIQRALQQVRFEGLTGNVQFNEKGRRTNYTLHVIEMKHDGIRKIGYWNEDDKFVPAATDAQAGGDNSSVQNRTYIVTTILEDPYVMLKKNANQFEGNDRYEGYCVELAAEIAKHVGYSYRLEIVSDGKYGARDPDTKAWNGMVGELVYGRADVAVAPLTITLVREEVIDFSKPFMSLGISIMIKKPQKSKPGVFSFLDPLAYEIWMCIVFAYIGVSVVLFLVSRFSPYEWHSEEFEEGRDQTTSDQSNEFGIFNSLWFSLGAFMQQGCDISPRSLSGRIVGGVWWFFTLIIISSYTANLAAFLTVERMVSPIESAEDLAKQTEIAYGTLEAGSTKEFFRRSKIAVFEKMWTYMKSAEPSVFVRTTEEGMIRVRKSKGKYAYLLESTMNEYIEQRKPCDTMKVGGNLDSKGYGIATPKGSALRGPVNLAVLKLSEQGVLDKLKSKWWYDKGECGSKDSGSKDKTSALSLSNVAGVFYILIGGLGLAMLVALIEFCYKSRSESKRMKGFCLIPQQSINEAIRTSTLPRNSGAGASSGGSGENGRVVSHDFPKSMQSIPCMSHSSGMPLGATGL
T1 sequence (Q9Y698 whole entry partner): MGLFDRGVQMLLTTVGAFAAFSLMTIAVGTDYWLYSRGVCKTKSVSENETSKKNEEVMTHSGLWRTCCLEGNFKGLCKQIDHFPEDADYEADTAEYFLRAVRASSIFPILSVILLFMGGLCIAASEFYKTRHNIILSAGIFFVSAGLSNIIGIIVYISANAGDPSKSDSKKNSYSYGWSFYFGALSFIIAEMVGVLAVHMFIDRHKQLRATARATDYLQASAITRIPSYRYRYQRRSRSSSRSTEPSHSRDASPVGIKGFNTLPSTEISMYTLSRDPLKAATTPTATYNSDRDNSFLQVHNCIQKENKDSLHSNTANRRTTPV
Assay type: cell-based
Text: Human GluR1 flip cDNA was amplified by PCR using forward primer […] (SEQ ID NO: 1) and reverse primer […] (SEQ ID NO: 2) artificially synthesized using human brain-derived cDNA (BD Bio science) as a template. The amplified product was digested with restriction enzymes EcoRI, NotI (TAKARA SHUZO CO. LTD.), and incorporated into the same site of pcDNA3.1(+) (Invitrogen) to construct pcDNA3.1(+)/human GluR1 flip gene. Human stargazin cDNA was amplified by PCR using forward primer […] (SEQ ID NO: 3) and reverse primer. […] (SEQ ID NO: 4) artificially synthesized using human hippocampus cDNA as a template. The amplified product was digested with restriction enzymes XhoI, BamHI (TAKARA SHUZO CO. LTD.), and incorporated into the same site of pcDNA3.1(−) (Invitrogen) to construct pcDNA3.1 Zeo(−)/human stargazin gene.
(2) Construction of GluR1 Flip/Stargazin Expressing Cell
CHO-K1 cells passaged in a culture medium (Ham's F12 medium (Invitrogen) added with 10% inactivated fetal bovine serum (Morgate) and penicillin, streptomycin (Invitrogen)) were detached with 0.05% trypsin, 0.53 mM EDTA (Invitrogen) diluted with D-PBS(−). The detached cells were suspended in a culture medium, and recovered by a centrifugation operation at 1,000 rpm. The recovered cells were suspended again in D-PBS(−), and added to a 0.4 cm electroporation cuvette (BioRad). pcDNA3.1(+)/human GluR1 flip gene (5 μg) and pcDNA3.1 Zeo(−)/human stargazin gene (15 μg) were added, and the mixture was introduced into CHO-K1 cells using Gene Pulser II (BioRad) under the conditions of 950 μFd, […]. The introduced cells were cultured overnight in a culture medium and, the next day, plated in a 96 well plate at 250 cells/well using a selection medium (culture medium added with Zeocin (Invitrogen) to 250 μg/mL). Clones showing drug resistance were selected, and GluR1 flip/stargazin expressing clones were selected by an assay method using calcium influx as an index as shown below.
(3) Measurement Method of AMPA Receptor Function Enhancing Activity of Compound Using Calcium Influx as Index
CHO-K1/GluR1 flip/stargazin expressing cells were plated on a 384 well black transparent bottom plate (FMAT4307723) at 0.5×10^4 cells/well, and cultured in a 37° C., CO2 incubator (SANYO Electric Co., Ltd.) for 2 days. The medium in the cell plate was removed, and a calcium indicator (Calcium 4 Assay Kit, Molecular. Devices) containing 1.25 mM probenecid (Invitrogen) was added at 25 μL/well and the well was left standing in 37° C., CO2 incubator for 1 hr. The cell plate was set in FLITRtetra (Molecular Devices), a mixture (12.5 μL) of 9 mM glutamic acid diluted with assay buffer B (HBSS (Invitrogen), 0.1% BSA, 10 mM HEPES) and a test compound was added, and the amount of change in fluorescence level in 3 min was measured. In the definition here, the amount of change in fluorescence level of well added with glutamic acid at final concentration 3 mM and 300 μM cyclothiazide (TOCRIS) is 100%, the amount of change in fluorescence level of well added only with glutamic acid at final concentration 3 mM is 0%, and the compound activity was calculated according to the following formula. activity (%)=(X−C)/(T−C)×100 T: amount of change in fluorescence level of well added with glutamic acid at final concentration 3 mM and 300 μM cyclothiazide C: amount of change in fluorescence level of well added only with glutamic acid at final concentration 3 mM X: amount of change in fluorescence level of well added with to test compound

Structure (SMILES)	activity (%)
CCS(=O)(=O)N[C@H]1CCCC[C@@H]1COc1ccc(C(C)C)cc1 [Example 13, N-[(1S,2S)-2-{[4-(1-methylethyl)phenoxy]methyl}cyclohexyl]ethanesulfonamide]	81%
CCS(=O)(=O)N[C@H]1CCOC[C@@H]1COc1ccc(-c2ccccn2)cc1 (relative stereo) [Example 137, trans-N-{3-[(4-pyridin-2-ylphenoxy)methyl]tetrahydro-2H-pyran-4-yl}ethanesulfonamide]	91%
O=S(=O)(N[C@H]1CCOC[C@@H]1COc1ccc(-c2ncc(Cl)s2)cc1)C1CC1 [Example 312, N-[(3R,4S)-3-{[4-(5-chloro-1,3-thiazol-2-yl)phenoxy]methyl}tetrahydro-2H-pyran-4-yl]cyclopropanesulfonamide]	91%
CCS(=O)(=O)N[C@H]1CCOC[C@@H]1COc1ccc(-c2cccnc2C)cc1 (racemic) [Example 322, N-[(3RS,4SR)-3-{[4-(2-methylpyridin-3-yl)phenoxy]methyl}tetrahydro-2H-pyran-4-yl]ethanesulfonamide]	91%
CCS(=O)(=O)N[C@H]1CCOC[C@@H]1COc1ccc(C(C)=O)c(F)c1 (relative stereo) [Example 131, trans-N-{3-[(4-acetyl-3-fluorophenoxy)methyl]tetrahydro-2H-pyran-4-yl}ethanesulfonamide]	89%
O=S(=O)(N[C@H]1CCOC[C@@H]1COc1ccc(-c2ncc(F)cc2F)cc1)C1CC1 (racemic) [Example 362, N-[(3RS,4SR)-3-{[4-(3,5-difluoropyridin-2-yl)phenoxy]methyl}tetrahydro-2H-pyran-4-yl]cyclopropanesulfonamide]	96%
CCS(=O)(=O)N[C@H]1CCCC[C@@H]1COc1ccc(OC(F)F)cc1 (relative stereo) [Example 52, trans-N-[2-{[4-(difluoromethoxy)phenoxy]methyl}cyclo-hexyl]ethanesulfonamide]	69%
CCS(=O)(=O)N[C@H]1CCOC[C@@H]1COc1ccc(-n2cccn2)cc1 (single isomer, unassigned) [Example 6, trans-N-[3-{[4-(1H-pyrazol-1-yl)phenoxy]methyl}tetrahydro-2H-pyran-4-yl]ethanesulfonamide]	82%
CCS(=O)(=O)N[C@H]1CCC(F)(F)C[C@@H]1COc1ccc(-n2ccc(C)n2)cc1 (relative stereo) [Example 142, trans-N-[4,4-difluoro-2-{[4-(3-methyl-1H-pyrazol-1-yl)phenoxy]methyl}cyclohexyl]ethanesulfonamide]	54%
CS(=O)(=O)N[C@H]1CCCO[C@@H]1COc1ccc(-c2ccc(C#N)cn2)cc1 (racemic) [Example 164, 1,5-anhydro-6-O-[4-(5-cyanopyridin-2-yl)phenyl]-2,3,4-trideoxy-4-[(methylsulfonyl)amino]-DL-erythro-hexitol]	76%
CCS(=O)(=O)N[C@H]1CCC(F)(F)C[C@@H]1COc1ccc(-n2nccc2C)cc1 (relative stereo) [Example 143, trans-N-[4,4-difluoro-2-{[4-(5-methyl-1H-pyrazol-1-yl)phenoxy]methyl}cyclohexyl]ethanesulfonamide]	42%
Cc1cnn(-c2ccc(OC[C@H]3COCC[C@@H]3NS(=O)(=O)C(F)(F)F)cc2)c1 (racemic) [Example 280, 1,1,1-trifluoro-N-[(3RS,4SR)-3-{[4-(4-methyl-1H-pyrazol-1-yl)phenoxy]methyl}tetrahydro-2H-pyran-4-yl]methanesulfonamide]	108%
CS(=O)(=O)N[C@H]1CCC(F)(F)C[C@@H]1COc1ccc(-c2ccc(C#N)cn2)cc1 (racemic) [Example 260, N-[(1SR,2SR)-2-{[4-(5-cyanopyridin-2-yl)phenoxy]methyl}-4,4-difluorocyclohexyl]methanesulfonamide]	82%
CCS(=O)(=O)N[C@H]1CCC(F)(F)C[C@@H]1COc1ccc(-n2cccn2)cc1 (relative stereo) [Example 130, trans-N-[4,4-difluoro-2-{[4-(1H-pyrazol-1-yl)phenoxy]methyl}cyclohexyl]ethanesulfonamide]	90%
CCS(=O)(=O)N[C@H]1CCC(F)(F)C[C@@H]1COc1ccc(-c2ncc(C#N)cc2F)cc1 [Example 222, N-[(1S,2S)-2-{[4-(5-cyano-3-fluoropyridin-2-yl)phenoxy]methyl}-4,4-difluorocyclohexyl]ethanesulfonamide]	89%
CS(=O)(=O)N[C@H]1COCC[C@@H]1COc1ccc(-c2ncc(Cl)cn2)cc1 [Example 284, N-[(3R,4S)-4-{[4-(5-chloropyrimidin-2-yl)phenoxy]methyl}tetrahydro-2H-pyran-3-yl]methanesulfonamide]	92%
CCS(=O)(=O)N[C@H]1CCOC[C@@H]1COc1ccc(C(C)=O)cc1F (relative stereo) [Example 136, trans-N-{3-[(4-acetyl-2-fluorophenoxy)methyl]tetrahydro-2H-pyran-4-yl}ethanesulfonamide]	85%

Results, then the compound that gave them:

activity (%)	Structure (SMILES)
95%	CCS(=O)(=O)N[C@H]1CCOC[C@@H]1COc1ccc(-c2ccc(C#N)cn2)cc1 [Example 297, N-[(3R,4S)-3-{[4-(5-cyanopyridin-2-yl)phenoxy]methyl}tetrahydro-2H-pyran-4-yl]ethanesulfonamide]
86%	CCS(=O)(=O)N[C@H]1CCCO[C@@H]1COc1ccc(C2CC2)cc1 (racemic) [Example 4, 1,5-anhydro-6-O-(4-cyclopropylphenyl)-2,3,4-trideoxy-4-[(ethylsulfonyl)amino]-DL-erythrohexitol]
88%	CCS(=O)(=O)N[C@H]1CCOC[C@@H]1COc1ccc(C(C)=O)cc1 (relative stereo) [Example 135, trans-N-{3-[(4-acetylphenoxy)methyl]tetrahydro-2H-pyran-4-yl}ethanesulfonamide]
78%	CCS(=O)(=O)N[C@H]1CCC(F)(F)C[C@@H]1COc1ccc(-n2cc(C)cn2)cc1 (relative stereo) [Example 141, trans-N-[4,4-difluoro-2-{[4-(4-methyl-1H-pyrazol-1-yl)phenoxy]methyl}cyclohexyl]ethanesulfonamide]
77%	CCS(=O)(=O)N[C@H]1CCCO[C@@H]1COc1ccc(-c2ncc(C)s2)cc1 (racemic) [Example 181, 1,5-anhydro-2,3,4-trideoxy-4-[(ethylsulfonyl)amino]-6-O-[4-(5-methyl-1,3-thiazol-2-yl)phenyl]-DL-erythro-hexitol]
64%	Cc1cc(-c2ccc(OC[C@H]3COCC[C@@H]3NS(C)(=O)=O)cc2)nn1C (racemic) [Example 281, N-[(3RS,4SR)-3-{[4-(1,5-dimethyl-1H-pyrazol-3-yl)phenoxy]methyl}tetrahydro-2H-pyran-4-yl]methanesulfonamide]
96%	O=S(=O)(N[C@H]1CCOC[C@@H]1COc1ccc(-c2ccc(F)cn2)c(F)c1)C1CC1 (racemic) [Example 243, N-[(3RS,4SR)-3-{[3-fluoro-4-(5-fluoropyridin-2-yl)phenoxy]methyl}tetrahydro-2H-pyran-4-yl]cyclopropanesulfonamide]
93%	Cc1cnc(-c2ccc(OC[C@H]3COCC[C@@H]3NS(C)(=O)=O)cc2)s1 (racemic) [Example 333, N-[(3RS,4SR)-3-{[4-(5-methyl-1,3-thiazol-2-yl)phenoxy]methyl}tetrahydro-2H-pyran-4-yl]methanesulfonamide]
